Experiments:
[1] = target: T1, bovine beta-2 adrenoceptor (Bos taurus, UniProt Q28044); test: cAMP assay in CHO cells transfected with the bovine beta-2 adrenoceptor; type: cell-based; conditions: cAMP (DiscoveRx Hit Hunter cAMP II) in CHO cells transfected with bovine beta-2 adrenoceptor, 30 minutes with compound, 0.5 mM IBMX
T1 construct: expressed in transfected cells; host or cells: CHO cells
Procedure: (§1) CHO cells transfected with the bovine or porcine beta-2 adrenceptors were maintained in culture in DMEM/HAMS F12+10% FBS+2 mM glutamine+500 μg/ml geneticin (for the porcine receptor the medium was supplement with 1.5 mM HEPES) at 37° C. with a 5% CO2 atmosphere.
(§2) Cells were plated into 96 well viewplates in medium and incubated overnight at 37° C. with a 5% CO2 atmosphere. The cells were pre-incubated with 0.5 mM IBMX in PBS for 30 minutes prior to incubation with increasing concentrations of experimental compound (5×10^−12 to 10^−5 M) for 30 minutes at 37° C. with a 5% CO2 atmosphere. At the end of the incubation time the compound was removed and the cells assayed for cAMP using the DiscoveRx Hit Hunter cAMP II™ assay kit.
(§3) Duplicate samples were run for each experimental compound and the data generated was analysed using EC50 analysis software in Graphpad Prism.

[2] = target: T2, porcine beta-2 adrenoceptor (Sus scrofa, UniProt Q28997); test: cAMP assay in CHO cells transfected with the porcine beta-2 adrenoceptor; type: cell-based; conditions: cAMP (DiscoveRx Hit Hunter cAMP II) in CHO cells transfected with porcine beta-2 adrenoceptor, 30 minutes with compound, 0.5 mM IBMX
T2 construct: expressed in transfected cells; host or cells: CHO cells
Procedure: as §1, §2, §3

T2 sequence (Q28997 whole entry): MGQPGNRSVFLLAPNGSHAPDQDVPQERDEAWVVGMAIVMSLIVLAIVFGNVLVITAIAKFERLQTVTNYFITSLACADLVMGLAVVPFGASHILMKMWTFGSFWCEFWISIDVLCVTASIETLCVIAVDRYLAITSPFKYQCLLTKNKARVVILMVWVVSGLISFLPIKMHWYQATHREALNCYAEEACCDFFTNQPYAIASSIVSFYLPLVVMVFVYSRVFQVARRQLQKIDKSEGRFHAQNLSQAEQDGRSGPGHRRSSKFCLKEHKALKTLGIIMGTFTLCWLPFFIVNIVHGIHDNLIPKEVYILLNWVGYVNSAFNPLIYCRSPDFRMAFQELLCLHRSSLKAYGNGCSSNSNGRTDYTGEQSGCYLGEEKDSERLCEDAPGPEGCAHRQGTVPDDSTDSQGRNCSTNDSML
T1 sequence (Q28044 whole entry): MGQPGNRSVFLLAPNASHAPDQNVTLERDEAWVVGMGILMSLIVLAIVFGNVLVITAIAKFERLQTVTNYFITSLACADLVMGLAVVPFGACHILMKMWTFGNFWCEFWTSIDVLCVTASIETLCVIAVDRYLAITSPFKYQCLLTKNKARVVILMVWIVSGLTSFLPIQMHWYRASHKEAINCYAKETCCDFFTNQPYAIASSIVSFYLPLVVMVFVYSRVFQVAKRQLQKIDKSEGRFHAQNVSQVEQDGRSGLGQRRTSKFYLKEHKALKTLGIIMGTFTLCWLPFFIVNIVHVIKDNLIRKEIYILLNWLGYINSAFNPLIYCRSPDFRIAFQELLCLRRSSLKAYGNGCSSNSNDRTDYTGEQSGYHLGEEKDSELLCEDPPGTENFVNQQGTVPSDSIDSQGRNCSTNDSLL

| EC50 [1] [nM] | EC50 [2] [nM] | Structure (SMILES) |
| --- | --- | --- |
| 5.9 | 2.3 | CC(CCc1ccccc1)N[C@@H]1CCn2c(=O)[nH]c3cccc(c32)[C@H]1O (single isomer, unassigned) [Example 9d, 7-Hydroxy-6-[(1-methyl-3-phenylpropyl)amino]-4,5,6,7-tetrahydroimidazo[4,5,1-jk][1]benzazepin-2(1H)-one] |
| 1.7 | 1.3 | CC(CCc1cccc(O)c1Cl)N[C@@H]1CCn2c(=O)[nH]c3cccc(c32)[C@H]1O (single isomer, unassigned) [Example 50, 6-{[3-(2-Chloro-3-hydroxyphenyl)-1-methylpropyl]amino}-7-hydroxy-4,5,6,7-tetrahydroimidazo[4,5,1-jk][1]benzazepin-2(1H)-one] |
| 1.5 | 1.8 | CC(CCc1cccc(F)c1O)N[C@@H]1CCn2c(=O)[nH]c3cccc(c32)[C@H]1O (single isomer, unassigned) [Example 28a] |
| 7.5 | 5.6 | CC(CCc1cccc(O)c1)NC1CCn2c(=O)[nH]c3cccc(c32)C1O (single isomer, unassigned) [Example 39, 7-Hydroxy-6-{[3-(3-hydroxyphenyl)-1-methylpropyl]amino}-4,5,6,7-tetrahydroimidazo[4,5,1-jk][1]benzazepin-2(1H)-one] |
| 8.2 | 6.2 | COC(=O)c1ccc(CC[C@@H](C)N[C@@H]2CCn3c(=O)[nH]c4cccc(c43)[C@H]2O)cc1 (single isomer, unassigned) [Example 70, Methyl 4-[3-{[7-hydroxy-2-oxo-1,2,4,5,6,7-hexahydroimidazo[4,5,1-jk][1]benzazepin-6-yl]amino}butyl]benzoate] |
| 7 | 2.3 | CC(CCc1ccccc1)N[C@@H]1CCn2c(=O)[nH]c3cccc(c32)[C@H]1O (single isomer, unassigned) [Example 9e, 7-Hydroxy-6-[(1-methyl-3-phenylpropyl)amino]-4,5,6,7-tetrahydroimidazo[4,5,1-jk][1]benzazepin-2(1H)-one] |
| 428 | 385 | CC(CC(C)(C)c1ccccc1)N[C@@H]1CCn2c(=O)[nH]c3cccc(c32)[C@H]1O (single isomer, unassigned) [Example 14a, 6-[(1,3-Dimethyl-3-phenylbutyl)amino]-7-hydroxy-4,5,6,7-tetrahydroimidazo[4,5,1-jk][1]benzazepin-2(1H)-one] |
| 39.2 | 40.8 | CC(=O)Nc1ccccc1CCC(C)NC1CCn2c(=O)[nH]c3cccc(c32)C1O (single isomer, unassigned) [Example 63, N-{2-[3-{[7-Hydroxy-2-oxo-1,2,4,5,6,7-hexahydroimidazo[4,5,1-jk][1]benzazepin-6-yl]amino}butyl]phenyl}acetamide] |
| 3.6 | 1.9 | CC(CCc1ccc(O)cc1)N[C@@H]1CCn2c(=O)[nH]c3cccc(c32)[C@H]1O (single isomer, unassigned) [Example 2d, 7-Hydroxy-6-{[3-(4-hydroxyphenyl)-1-methylpropyl]amino}-4,5,6,7-tetrahydroimidazo[4,5,1-jk][1]benzazepin-2(1H)-on] |
| 0.6 | 2.2 | CC(CCc1cc(F)cc(Cl)c1O)N[C@@H]1CCn2c(=O)[nH]c3cccc(c32)[C@H]1O (mixture of isomers) [Example 27, 6-{[3-(3-Chloro-5-fluoro-2-hydroxyphenyl)-1-methylpropyl]amino}-7-hydroxy-4,5,6,7-tetrahydroimidazo[4,5,1-jk][1]benzazepin-2(1H)-one] |
| > 200 | > 300 | CC(CCc1cc(Br)cc(Br)c1O)N[C@@H]1CCn2c(=O)[nH]c3cccc(c32)[C@H]1O (mixture of isomers) [Example 47, 6-{[3-(3,5-Dibromo-2-hydroxyphenyl)-1-methylpropyl]amino}-7-hydroxy-4,5,6,7-tetrahydroimidazo[4,5,1-jk][1]benzazepin-2(1H)-one] |
| 456 | 108 | CC(CCc1ccc2c(c1)CCO2)N[C@@H]1CCn2c(=O)[nH]c3cccc(c32)[C@H]1O (single isomer, unassigned) [Example 3b, 6-{[3-(2,3-Dihydro-1-benzofuran-5-yl)-1-methylpropyl]amino}-7-hydroxy-4,5,6,7-tetrahydroimidazo[4,5,1-jk][1]benzazepin-2(1H)-one] |
| 258 | 104 | CC(/C=C/c1ccccc1NS(C)(=O)=O)N[C@@H]1CCn2c(=O)[nH]c3cccc(c32)[C@H]1O (mixture of isomers) [Example 42, N-{2-[3-{[7-Hydroxy-2-oxo-1,2,4,5,6,7-hexahydroimidazo[4,5,1-jk][1]benzazepin-6-yl]amino}but-1-en-1-yl]phenyl}methanesulfonamide] |
| 33.8 | 28.9 | C[C@H](CCc1cccc(N)c1)N[C@@H]1CCn2c(=O)[nH]c3cccc(c32)[C@H]1O (single isomer, unassigned) [Example 46, 6-{[3-(3-Aminophenyl)-1-methylpropyl]amino}-7-hydroxy-4,5,6,7-tetrahydroimidazo[4,5,1-jk][1]benzazepin-2(1H)-one] |
| 33.2 | 18 | CC(/C=C/c1ccccc1F)N[C@@H]1CCn2c(=O)[nH]c3cccc(c32)[C@H]1O (single isomer, unassigned) [Example 40b, 6-{[3-(2-Fluorophenyl)-1-methylprop-2-en-1-yl]amino}-7-hydroxy-4,5,6,7-tetrahydroimidazo[4,5,1-jk][1]benzazepin-2(1H)-one] |
| 7.3 | 1.8 | CC(CCc1ccccc1OC(C)C)NC1CCn2c(=O)[nH]c3cccc(c32)C1O (stereo not shown) [Example 35, 7-Hydroxy-6-{[3-(2-isopropoxyphenyl)-1-methylpropyl]amino}-4,5,6,7-tetrahydroimidazo[4,5,1-jk][1]benzazepin-2(1H)-one] |
| 0.3 | 0.5 | CC(CCc1cc(F)ccc1O)N[C@@H]1CCn2c(=O)[nH]c3cccc(c32)[C@H]1O (single isomer, unassigned) [Example 7b, 6-{[3-(5-Fluoro-2-hydroxyphenyl)-1-methylpropyl]amino}-7-hydroxy-4,5,6,7-tetrahydroimidazo[4,5,1-jk][1]benzazepin-2(1H)-one] |
| 1.1 | 2.4 | CC(CCc1ccc(O)c(F)c1)NC1CCn2c(=O)[nH]c3cccc(c32)C1O (single isomer, unassigned) [Example 58, 6-{[3-(3-Fluoro-4-hydroxyphenyl)-1-methylpropyl]amino}-7-hydroxy-4,5,6,7-tetrahydroimidazo[4,5,1-jk][1]benzazepin-2(1H)-one] |
| 27.1 | 5.6 | CC(CCc1ccc2c(c1)CCO2)N[C@@H]1CCn2c(=O)[nH]c3cccc(c32)[C@H]1O (single isomer, unassigned) [Example 3c, 6-{[3-(2,3-Dihydro-1-benzofuran-5-yl)-1-methylpropyl]amino}-7-hydroxy-4,5,6,7-tetrahydroimidazo[4,5,1-jk][1]benzazepin-2(1H)-one] |
| 6.1 | 7.1 | C[C@@H](CCc1cccc(NC(=O)C(F)(F)F)c1)N[C@@H]1CCn2c(=O)[nH]c3cccc(c32)[C@H]1O (single isomer, unassigned) [Example 57, 2,2,2-Trifluoro-N-{3-[3-{[7-hydroxy-2-oxo-1,2,4,5,6,7-hexahydroimidazo[4,5,1-jk][1]benzazepin-6-yl]amino}butyl]phenyl}acetamide] |
| 77.7 | 104 | CC(CCc1cc(F)ccc1O)N[C@@H]1CCn2c(=O)[nH]c3cccc(c32)[C@H]1O (single isomer, unassigned) [Example 7a, 6-{[3-(5-Fluoro-2-hydroxyphenyl)-1-methylpropyl]amino}-7-hydroxy-4,5,6,7-tetrahydroimidazo[4,5,1-jk][1]benzazepin-2(1H)-one] |
| 74.7 | 31.5 | CC(CCc1cccc(NS(C)(=O)=O)c1)NC1CCn2c(=O)[nH]c3cccc(c32)C1O (single isomer, unassigned) [Example 65] |
| 198 | 128 | CC(CCc1ccc(C(=O)O)cc1)NC1CCn2c(=O)[nH]c3cccc(c32)C1O (single isomer, unassigned) [Example 68, 4-[3-{[7-Hydroxy-2-oxo-1,2,4,5,6,7-hexahydroimidazo[4,5,1-jk][1]benzazepin-6-yl]amino}butyl]benzoic acid] |
| 2.8 | 1.9 | CC(CCc1ccc(O)c(F)c1F)NC1CCn2c(=O)[nH]c3cccc(c32)C1O (single isomer, unassigned) [Example 37, 6-{[3-(2,3-Difluoro-4-hydroxyphenyl)-1-methylpropyl]amino}-7-hydroxy-4,5,6,7-tetrahydroimidazo[4,5,1-jk][1]benzazepin-2(1H)-one] |
| 137 | 141 | CC(CCc1cccc(C(N)=O)c1)NC1CCn2c(=O)[nH]c3cccc(c32)C1O (single isomer, unassigned) [Example 66, 3-[3-{[7-Hydroxy-2-oxo-1,2,4,5,6,7-hexahydroimidazo[4,5,1-jk][1]benzazepin-6-yl]amino}butyl]benzamide] |
| 2.2 | 2.7 | CC(CCc1cc(Cl)cc(Cl)c1O)N[C@@H]1CCn2c(=O)[nH]c3cccc(c32)[C@H]1O (mixture of isomers) [Example 25, 6-{[3-(3,5-Dichloro-2-hydroxyphenyl)-1-methylpropyl]amino}-7-hydroxy-4,5,6,7-tetrahydroimidazo[4,5,1-jk][1]benzazepin-2(1H)-one] |

Source: patent US20080161288A1, “COMPOUNDS” (Pfizer Inc., priority 2006, published 2008)
